The nature of the data set: Single ascending dose (SAD) study in healthy human, plasma PK. The format is in vivo. To be noted: for AUC(0-inf) / AUC(0-t) / Cmax: human, plasma, po; for AUC(0-inf): read-out: AUCinf, geometric mean; for AUC(0-t): read-out: AUClast, geometric mean; for Cmax: read-out: Cmax, geometric mean. As to the method: To determine safety and pK data in human subjects, single ascending dose (SAD) study was conducted. SAD study included 5 cohorts of 8 healthy subjects who were randomized and received a single oral dose of Reference Example 1 compound or placebo (3:1) at 0.5 mg, 1 mg, 2 mg, 5 mg, or 10 mg. Each cohort was initiated after review of the safety and PK data of the previous cohort. 5 mg cohort was divided into two groups, wherein one group was administered with Reference Example 1 compound in fasted state and the other group was administered with Reference Example 1 compound together with food.
Mean plasma concentration of Reference Example 1 compound following single dose of 0.5, 1, 2, 5, and 10 mg are shown in FIG. 4A (linear scale) and FIG. 4B (semi-logarithmic scale).
FIG. 5A and FIG. 5B show mean plasma concentration of Reference Example 1 compound following single dose of 0.5 mg (fasted), 1 mg (fasted), 2 mg (fasted), 5 mg (fasted), and 5 mg (fed) in linear scale and semi-logarithmic scale, respectively.

The mark [1] stands for this setting: 0.5 mg, single oral dose 0.5 mg.
[2] abbreviates: 5 mg, single oral dose 5 mg fasted.
Setting [3] is: 5 mg, single oral dose 5 mg fed.

Results on one molecule are retold here after patent US20220409598A1, “METHOD OF CONTROLLING BLOOD SUGAR LEVEL AND TREATMENT OF DIABETES AND RELATED CONDITIONS” (ILDONG PHARMACEUTICAL CO., LTD., priority 2021, published 2022).

Molecules are shown by their SMILES. Where two headings read alike, the source gives them in different places.

By Cmax is commonly meant the peak of the concentration-time curve. As to `CC#C[C@@H](CC(=O)O)c1ccc(O[C@@H]2CCc3c(-c4ccc(O[C@@H]5CCOC5)nc4)ccc(F)c32)cc1` [Reference Example 1, (S)-3-(4-(((R)-7-Fluoro-4-(6-(((R)-tetrahydrofuran-3-yl)oxy)pyridin-3-yl)-2,3-dihydro-1H-inden-1-yl)oxy)phenyl)hex-4-ynoic acid], the AUC(0-inf) reads like this: under setting [1], 811 ng·h/mL; (1 mg, single oral dose 1 mg) 1660 ng·h/mL; (2 mg, single oral dose 2 mg) 2980 ng·h/mL; under setting [2], 7740 ng·h/mL; under setting [3], 8270 ng·h/mL; (10 mg, single oral dose 10 mg) 18600 ng·h/mL. Moreover, the AUC(0-t) under setting [1] is 680 ng·h/mL; the AUC(0-t) (1 mg, single oral dose 1 mg) is 1370 ng·h/mL; the AUC(0-t) (2 mg, single oral dose 2 mg) turned out to be 2480 ng·h/mL; the AUC(0-t) under setting [2] came to 6520 ng·h/mL; the AUC(0-t) under setting [3] came out at 6930 ng·h/mL; the AUC(0-t) (10 mg, single oral dose 10 mg) was 14800 ng·h/mL. Further, the Cmax is, setting by setting: under setting [1], 28.4 ng/mL; (1 mg, single oral dose 1 mg) 55.8 ng/mL; (2 mg, single oral dose 2 mg) 109 ng/mL; under setting [2], 243 ng/mL; under setting [3], 250 ng/mL; (10 mg, single oral dose 10 mg) 545 ng/mL. Further, the “Fed/fasted % ratio for AUClast” value (single dose 5 mg) turned out to be 106.28%. For the same molecule, the “Fed/fasted % ratio for Cmax” value (single dose 5 mg) is given as 103.19%.
